Results taken from patent US11767319B2, “Crystalline forms of a selective c-kit kinase inhibitor” (Third Harmonic Bio, Inc., priority 2020, dated 2023).
“Also recorded” adds a separate entry of the source.

Tests used:
Type in all cases: physicochemical
[1] = Slurry experiments in SGF; conditions: 37° C., 500 rpm
Protocol: About 200 mg of sodium chloride and about 100 mg Triton X-100 was weighted into a 100-mL volumetric flask. About 100 mL of purified water was added to the flask and the solution was sonicated until all solids were completely dissolved. 1 M HCl was added to adjust the pH to 1.8 and the solution was mixed well and the pH was checked with a pH meter.
Competitive slurry experiments were performed for Forms A, H^A, H^B, C and D in SGF. About 10 mg of each form was added into separate HPLC vials followed by addition of 1.0 mL SGF in order to form slurries. The slurries were heated to 37° C. and stirred at 500 rpm. After 2 h or 24 h, the samples were centrifuged and the solids were collected for XRPD testing.

[2] = Competitive slurry experiments among anhydrates (IPA/IPAc); conditions: at RT and 50° C., IPA/IPAc slurries
Protocol: Competitive slurry experiments were performed in IPA/IPAc at RT/50° C. between anhydrates Form A of compound 1 and Form D of compound 1. Form A of compound 1 was added into each solvent to form a slurry at RT or 50° C. and was stirred for 2 h. The slurries were then filtered to obtain saturated solution. Around 10 mg each of Form A of compound 1 and Form D of compound 1 were added into each solution to form a mixed slurry at RT or 50° C. […] The formation of Form H^A of compound 1 is postulated to be caused by residual water in the solvents or due to ambient humidity (˜35% humidity during slurry experiments).

[3] = Hydration mapping starting with Form A
Protocol: To establish the hydration map of compound 1, solutions with varying water activity (aw) were prepared and the aw was measured using a water activity meter. Table 13 below details the solvent systems investigated and their corresponding measured water activities.
23×20 mg of Form A of compound 1 was weighed into vials. 1 mL of solvent (see tables above) was added to each vial to form a slurry. After manual shaking for a few seconds, where solutions were observed, an additional ˜10 to 20 mg of solid was added to produce a slurry. Additional solid was added to the 2-MeTHF, water/2-MeTHF (1:99% v/v), acetone/water (aw of 0.92) and methanol/water (aw of 0.11) samples. All slurries were then agitated for 24 h at 25° C. After 24 h, aliquots of solid were isolated via centrifugal filtration and analysed by XRPD. The remaining slurries were agitated for a further 5 days (total of 6 days). The solids were isolated and analysed by XRPD. All identified forms were analysed by XRPD, TG/DSC and ^1H NMR (where sufficient material was available).

[4] = Form investigation in buffered media; conditions: for XRPD Pattern / pH (24 h): 24 h at 25° C.
Protocol: To investigate the polymorphic landscape of compound 1 in buffered systems, 5×20 mg of Form A slurries and 5×20 mg of amorphous slurries (amorphous material prepared using the method described in the above hydration mapping experiments) were prepared by adding 1 mL of buffer to each vial and the resulting slurries were agitated for 24 h at 25° C. The pH was measured post-buffer addition and after 24 h agitation. After 24 h, aliquots of solid were isolated via centrifugal filtration and analysed by XRPD.

[5] = Ethanol/hydrocarbon mixtures slurry study
Protocol: Using the methods described above for the Form A input and amorphous input experiments, 5×20 mg of Form A slurries and 5×20 mg of amorphous input slurries were prepared by adding 1 mL of solvent (see Table 16 below) to each vial and the resulting slurries were agitated for 24 h at 25° C. After 24 h, aliquots of solid were isolated via centrifugal filtration and analysed by XRPD.

[6] = Acetone/Water, aw 0.1363, 25° C.
[7] = Acetone/Water, aw 0.2621, 25° C.
[8] = Acetone/Water, aw 0.5455, 25° C.
[9] = EtOH/Heptane, aw 0.0300, 25° C.
[10] = Water/2-MeTHF, aw 0.5286, 25° C.

Structure (SMILES): Cc1ccc(-c2noc([C@H]3C[C@@H]3F)n2)cc1NC(=O)c1cnc2ccccn12 [Form H^A, N-(5-(5-((1R,2S)-2-fluorocyclopropyl)-1,2,4-oxadiazol-3-yl)-2-methylphenyl)imidazo[1,2-a]pyridine-3-carboxamide]
- XRPD at 2 h [1]: No form change; also recorded: Form H^A
- XRPD at 2 h ([1]; listed as Form H^B): No form change; also recorded: Form H^B
- XRPD at 24 h [1]: No form change; also recorded: Form H^A
- XRPD at 24 h ([1]; listed as Form H^B): No form change; also recorded: Form H^B
- relative thermodynamic stability [2]: thermodynamically more stable than Form A

Structure (SMILES): Cc1ccc(-c2noc([C@H]3C[C@@H]3F)n2)cc1NC(=O)c1cnc2ccccn12 [Form A, N-(5-(5-((1R,2S)-2-fluorocyclopropyl)-1,2,4-oxadiazol-3-yl)-2-methylphenyl)imidazo[1,2-a]pyridine-3-carboxamide]
- XRPD pattern observed, 24 h ([3]; 2-MeTHF, aw 0.0378, 25° C.): Form A
- XRPD pattern observed, 6 Days ([3]; 2-MeTHF, aw 0.0378, 25° C.): Form A
- XRPD pattern observed, 24 h [3, 6]: Form H^A
- XRPD pattern observed, 6 Days [3, 6]: Form H^A
- XRPD pattern observed, 24 h [3, 7]: Form H^A
- XRPD pattern observed, 6 Days [3, 7]: Form H^A
- XRPD pattern observed, 24 h [3, 8]: Form H^A
- XRPD pattern observed, 6 Days [3, 8]: Form H^A
- XRPD pattern observed, 6 Days ([3]; Acetone/Water, aw 0.7082, 25° C.): Form H^A
- XRPD pattern observed, 24 h [3, 9]: Form A
- XRPD pattern observed, 6 Days [3, 9]: Form A
- XRPD pattern observed, 24 h ([3]; EtOH/Water, aw 0.1580, 25° C.): Form H^A
- XRPD pattern observed, 6 Days ([3]; EtOH/Water, aw 0.1580, 25° C.): Form H^A
- XRPD pattern observed, 24 h ([3]; EtOH/Water, aw 0.3377, 25° C.): Form H^A
- XRPD pattern observed, 6 Days ([3]; EtOH/Water, aw 0.3377, 25° C.): Form H^A
- XRPD pattern observed, 24 h ([3]; EtOH/Water, aw 0.4986, 25° C.): Form H^A
- XRPD pattern observed, 6 Days ([3]; EtOH/Water, aw 0.4986, 25° C.): Form H^A
- XRPD pattern observed, 24 h ([3]; EtOH/Water, aw 0.7600, 25° C.): Form H^A
- XRPD pattern observed, 6 Days ([3]; EtOH/Water, aw 0.7600, 25° C.): Form H^A
- XRPD pattern observed, 24 h ([3]; EtOH/Water, aw 0.9005, 25° C.): Form A
- XRPD pattern observed, 24 h ([3]; MeCN/Water, aw 0.1060, 25° C.): Form H^A
- XRPD pattern observed, 6 Days ([3]; MeCN/Water, aw 0.1060, 25° C.): Form H^A
- XRPD pattern observed, 24 h ([3]; MeCN/Water, aw 0.3664, 25° C.): Form H^A
- XRPD pattern observed, 6 Days ([3]; MeCN/Water, aw 0.3664, 25° C.): Form H^A
- XRPD pattern observed, 24 h ([3]; MeCN/Water, aw 0.5573, 25° C.): Form H^A
- XRPD pattern observed, 6 Days ([3]; MeCN/Water, aw 0.5573, 25° C.): Form H^A
- XRPD pattern observed, 6 Days ([3]; MeCN/Water, aw 0.7300, 25° C.): Form H^A
- XRPD pattern observed, 24 h ([3]; MeOH/Water, aw 0.0963, 25° C.): Form H^A
- XRPD pattern observed, 6 Days ([3]; MeOH/Water, aw 0.0963, 25° C.): Form H^A
- XRPD pattern observed, 24 h ([3]; MeOH/Water, aw 0.3242, 25° C.): Form H^A
- XRPD pattern observed, 6 Days ([3]; MeOH/Water, aw 0.3242, 25° C.): Form H^A
- XRPD pattern observed, 24 h ([3]; MeOH/Water, aw 0.5145, 25° C.): Form H
- XRPD pattern observed, 6 Days ([3]; MeOH/Water, aw 0.5145, 25° C.): Form H^A
- XRPD pattern observed, 24 h ([3]; MeOH/Water, aw 0.6965, 25° C.): Form H
- XRPD pattern observed, 6 Days ([3]; MeOH/Water, aw 0.6965, 25° C.): Form H
- XRPD pattern observed, 24 h ([3]; MeOH/Water, aw 0.9294, 25° C.): Form A
- XRPD pattern observed, 6 Days ([3]; MeOH/Water, aw 0.9294, 25° C.): Form C
- XRPD pattern observed, 24 h [3, 10]: Form H^A
- XRPD pattern observed, 6 Days [3, 10]: Form H^A
- XRPD at 2 h [1]: transformed to Form C
- XRPD at 24 h [1]: transformed to Form C
- XRPD Pattern ([4]; NaOH (0.2M)): Form H^A and Form C
- XRPD Pattern ([4]; pH 1.2 (HCl—KCl)): HCl Salt Form
- XRPD Pattern ([4]; pH 4.5 (acetate)): Form F
- XRPD Pattern ([4]; pH 6.8 (phosphate)): Form H^A
- XRPD Pattern ([4]; pH 8 (PBS)): Form H^A
- pH (Post-Buffer Addition) ([4]; slurry in NaOH (0.2M)): 11.98
- pH (24 h) ([4]; slurry in NaOH (0.2M)): 11.91
- pH (Post-Buffer Addition) ([4]; slurry in pH 1.2 (HCl—KCl)): 1.20
- pH (24 h) ([4]; slurry in pH 1.2 (HCl—KCl)): 1.19
- pH (Post-Buffer Addition) ([4]; slurry in pH 4.5 (acetate)): 4.63
- pH (24 h) ([4]; slurry in pH 4.5 (acetate)): 4.62
- pH (Post-Buffer Addition) ([4]; slurry in pH 6.8 (phosphate)): 6.87
- pH (24 h) ([4]; slurry in pH 6.8 (phosphate)): 6.88
- pH (Post-Buffer Addition) ([4]; slurry in pH 8 (PBS)): 8.04
- pH (24 h) ([4]; slurry in pH 8 (PBS)): 8.17
- XRPD pattern observed ([5]; EtOH/Cyclohexane (50:50% v/v), aw 0.025, 24 h at 25° C.): Form A
- XRPD pattern observed ([5]; EtOH/Dodecane (50:50% v/v), aw 0.024, 24 h at 25° C.): Form A
- XRPD pattern observed ([5]; EtOH/Hexane (50:50% v/v), aw 0.018, 24 h at 25° C.): Form A
- XRPD pattern observed ([5]; EtOH/Methylcyclohexane (50:50% v/v), aw 0.019, 24 h at 25° C.): Form A
- XRPD pattern observed ([5]; EtOH/Octane (50:50% v/v), aw 0.019, 24 h at 25° C.): Form A
